Source: patent US8653102B2, “Substituted 2-oxo- and 2-thioxo-dihydroquinoline-3-carboxamides as KCNQ2/3 modulators” (Gruenenthal GmbH, priority 2010, dated 2014)
Read-outs that look alike come from different tables or passages of the source.

Biological target: T1, KCNQ2/3 channels (Homo sapiens, UniProt O43525+O43526)
T1 construct: expressed in transfected cells; host or cells: CHO-K1 cells kept under selection antibiotics
Assay: Fluorescence assay using a voltage sensitive dye (fluorimetry)
Format: cell-based
Experimental: Pharmacological Experiments Method I. Fluorescence Assay Using a Voltage Sensitive Dye (Fluorimetry)
[…] CHO-K1 cells expressing KCNQ2/3 channels are cultivated adherently at 37° C., 5% CO2 and 95% humidity in cell culture bottles (e.g. 80 cm^2 TC flasks, Nunc) with DMEM-high glucose (Sigma Aldrich, D7777) including 10% FCS (PAN Biotech, e.g. 3302-P270521) or alternatively MEM Alpha Medium (1×, liquid, Invitrogen, #22571), 10% fetal calf serum (FCS) (Invitrogen, #10270-106, heat-inactivated) and the necessary selection antibiotics.
Before being sown out for the measurements, the cells are washed with 1×DPBS buffer Ca^2+/Mg^2+-free (e.g. Invitrogen, #14190-094) and detached from the bottom of the culture vessel by using Accutase (PAA Laboratories, #L11-007) (incubation with Accutase for 15 min at 37° C.). The cell number is determined using a CASY™ cell counter (TCC, Schärfe System). Depending on the optimal density for each individual cell line, 20,000-30,000 cells/well/100 μl are seeded onto 96-well Corning™ CellBIND™ assay plates (Flat Clear Bottom Black Polystyrene Microplates, #3340). Freshly seeded cells are then left to settle for one hour at room temperature, followed by incubation for 24 hours at 37° C., 5% CO2 and 95% humidity.
The voltage-sensitive fluorescent dye from the Membrane Potential Assay Kit (Red™ Bulk format part R8123 for FLIPR, MDS Analytical Technologies™) is prepared by dissolving the contents of one vessel Membrane Potential Assay Kit Red Component A in 200 ml of extracellular buffer (ES buffer, 120 mM NaCl, 1 mM KCl, 10 mM HEPES, 2 mM CaCl2, 2 mM MgCl2, 10 mM glucose; pH 7.4). After removal of the nutrient medium, the cells are washed once with 200 μl of ES buffer, then loaded for 45 min at room temperature in 100 μl of dye solution in the dark.
Fluorescence measurements are carried out in a BMG Labtech FLUOstar™, BMG Labtech NOVOstar™ or BMG Labtech POLARstar™ instrument (525 nm excitation, 560 nm emission, Bottom Read mode). After incubation with the dye, 50 μl of the test substances in the desired concentrations, or 50 μl of ES buffer for control purposes, are applied to the wells of the assay plate and incubated for 30 min at room temperature while being shielded from light. The fluorescence intensity of the dye is then measured for 5 min and the fluorescence value F1 of each well is thus determined at a given, constant time. 15 μl of a KCl solution are then added to each well (final concentration of potassium ions 92 mM). The change in fluorescence intensity is subsequently monitored until all the relevant values have been obtained (mainly 5-30 min). At a given time post KCl application, a fluorescence value F2 is determined, in this case at the time of the fluorescence peak.
For calculation, the fluorescence intensity F2 is corrected for the fluorescence intensity F1, and the activity (ΔF/F) of the target compound on the potassium channel is determined as follows:
In order to determine whether a substance has agonistic activity,
A substance has an agonistic activity on the potassium channel if
[formula] increases dose dependently.
Calculations of EC50 and IC50 values are carried out with the aid of ‘Prism v4.0’ software (GraphPad Software™).

[1] = CHO-K1 cells expressing KCNQ2/3 channels
[2] = CHO-K1 cells expressing KCNQ2/3 channels, relative to retigabine (RTG) = 100%, read-out: Fluorimetry % efficacy (RTG = 100%)

Row | Compound | EC50 [1] [nM] | Fluorimetry % efficacy (RTG = 100%) (CHO-K1 cells expressing KCNQ2/3 channels, relative to retigabine (RTG) = 100%) [%] | Emax [2] [%] | Emax (CHO-K1, read-out: Fluorimetry % efficacy (RTG = 100%)) [%]
1 | 2-[3-[(3-fluorophenyl)-methyl-carbamoyl]-4-methyl-2-oxo-7-(trifluoromethyl)-1H-quinolin-1-yl]-acetic acid methyl ester [Example 26] | 1010 | 108 |  | 
2 | CCCCn1c(=O)c(C(=O)NCc2cccc(F)c2)c(C)c2ccc(C(F)(F)F)cc21 [Example 2, 1-butyl-N-[(3-fluorophenyl)-methyl]-4-methyl-2-oxo-7-(trifluoromethyl)-1H-quinoline-3-carboxylic acid amide] | 235 |  | 90 | 
3 | CCn1c(=O)c(C(=O)NCc2cccc(F)c2)c(C)c2ccc(C(F)(F)F)cc21 [Example 5, 1-ethyl-N-[(3-fluorophenyl)-methyl]-4-methyl-2-oxo-7-(trifluoromethyl)-1H-quinoline-3-carboxylic acid amide] | 381 |  | 173 | 
4 | CCn1c(=O)c(C(=O)NCc2ccc(F)cc2)c(C)c2ccc(C(F)(F)F)cc21 [Example 8, 1-ethyl-N-[(4-fluorophenyl)-methyl]-4-methyl-2-oxo-7-(trifluoromethyl)-1H-quinoline-3-carboxylic acid amide] | 401 |  | 175 | 
5 | Cc1c(C(=O)NCc2cccc(F)c2)c(=O)n(C)c2ccccc12 [Example 9, N-[(3-fluorophenyl)-methyl]-1,4-dimethyl-2-oxo-1H-quinoline-3-carboxylic acid amide] | 5690 |  | 63 | 
6 | COCCn1c(=O)c(C(=O)NCc2cccc(F)c2)c(C)c2ccccc21 [Example 10, N-[(3-fluorophenyl)-methyl]-1-(2-methoxy-ethyl)-4-methyl-2-oxo-1H-quinoline-3-carboxylic acid amide] |  |  | 22 | 
7 | CCCn1c(=O)c(C(=O)NCc2cccc(F)c2)c(C)c2ccc(C(F)(F)F)cc21 [Example 11, N-[(3-fluorophenyl)-methyl]-4-methyl-2-oxo-1-propyl-7-(trifluoromethyl)-1H-quinoline-3-carboxylic acid amide] | 406 |  | 167 | 
8 | Cc1c(C(=O)NCc2cccc(F)c2)c(=O)n(CCC(C)C)c2cc(C(F)(F)F)ccc12 [Example 12, N-[(3-fluorophenyl)-methyl]-4-methyl-1-(3-methyl-butyl)-2-oxo-7-(trifluoromethyl)-1H-quinoline-3-carboxylic acid amide] |  |  | 33 | 
9 | Cc1c(C(=O)NCc2cccc(F)c2)c(=O)n(CCCC(C)C)c2cc(C(F)(F)F)ccc12 [Example 13, N-[(3-fluorophenyl)-methyl]-4-methyl-1-(4-methyl-pentyl)-2-oxo-7-(trifluoromethyl)-1H-quinoline-3-carboxylic acid amide] |  |  | 3 | 
10 | COCCCn1c(=O)c(C(=O)NCc2cccc(F)c2)c(C)c2ccc(C(F)(F)F)cc21 [Example 14, N-[(3-fluorophenyl)-methyl]-1-(3-methoxy-propyl)-4-methyl-2-oxo-7-(trifluoromethyl)-1H-quinoline-3-carboxylic acid amide] | 992 |  | 61 | 
11 | COCCOCCn1c(=O)c(C(=O)NCc2cccc(F)c2)c(C)c2ccc(C(F)(F)F)cc21 [Example 15, N-[(3-fluorophenyl)-methyl]-1-[2-(2-methoxy-ethoxy)-ethyl]-4-methyl-2-oxo-7-(trifluoromethyl)-1H-quinoline-3-carboxylic acid amide] | 2020 |  | 78 | 
12 | Cc1c(C(=O)NCc2cccc(F)c2)c(=O)n(C)c2cc(C#N)ccc12 [Example 20, 7-cyano-N-[(3-fluorophenyl)-methyl]-1,4-dimethyl-2-oxo-1H-quinoline-3-carboxylic acid amide] | 1270 |  | 143 | 
13 | Cc1c(C(=O)NCc2ccc(F)cc2)c(=O)n(C)c2cc(C#N)ccc12 [Example 21, 7-cyano-N-[(4-fluorophenyl)-methyl]-1,4-dimethyl-2-oxo-1H-quinoline-3-carboxylic acid amide] | 837 |  | 136 | 
14 | COCCn1c(=O)c(C(=O)NCc2cccc(F)c2)c(C)c2ccc(C#N)cc21 [Example 22, 7-cyano-N-[(3-fluorophenyl)-methyl]-1-(2-methoxy-ethyl)-4-methyl-2-oxo-1H-quinoline-3-carboxylic acid amide] | 3140 |  | 102 | 
15 | COCCn1c(=O)c(C(=O)NCc2ccc(F)cc2)c(C)c2ccc(C#N)cc21 [Example 23, 7-cyano-N-[(4-fluorophenyl)-methyl]-1-(2-methoxy-ethyl)-4-methyl-2-oxo-1H-quinoline-3-carboxylic acid amide] | 3890 |  | 105 | 
16 | COCCn1c(=O)c(C(=O)NCCCC(C)(C)C)c(C)c2ccc(C(F)(F)F)cc21 [Example 24, N-(4,4-dimethyl-pentyl)-1-(2-methoxy-ethyl)-4-methyl-2-oxo-7-(trifluoromethyl)-1H-quinoline-3-carboxylic acid amide] | 167 |  | 231 | 
17 | Cc1c(C(=O)NCCCC(C)(C)C)c(=O)n(C)c2cc(C(F)(F)F)ccc12 [Example 25, N-(4,4-dimethyl-pentyl)-1,4-dimethyl-2-oxo-7-(trifluoromethyl)-1H-quinoline-3-carboxylic acid amide] | 68 |  | 258 | 
18 | COC(=O)CCn1c(=O)c(C(=O)N(C)c2cccc(F)c2)c(C)c2ccc(C(F)(F)F)cc21 [Example 27, 3-[3-[(3-fluorophenyl)-methyl-carbamoyl]-4-methyl-2-oxo-7-(trifluoromethyl)-1H-quinolin-1-yl]-propionic acid methyl ester] |  |  | 22 | 
19 | Cc1c(C(=O)N(C)c2cccc(F)c2)c(=O)n(CC(=O)O)c2cc(C(F)(F)F)ccc12 [Example 28, 2-[3-[(3-fluorophenyl)-methyl-carbamoyl]-4-methyl-2-oxo-7-(trifluoromethyl)-1H-quinolin-1-yl]-acetic acid] |  |  | 16 | 
20 | Cc1c(C(=O)N(C)c2cccc(F)c2)c(=O)n(CCC(=O)O)c2cc(C(F)(F)F)ccc12 [Example 29, 3-[3-[(3-fluorophenyl)-methyl-carbamoyl]-4-methyl-2-oxo-7-(trifluoromethyl)-1H-quinolin-1-yl]-propionic acid] |  |  | 6 | 
21 | CCC(COC)n1c(=O)c(C(=O)NCc2cccc(F)c2)c(C)c2ccc(C(F)(F)F)cc21 (centres unmarked) [Example 30, N-[(3-fluorophenyl)-methyl]-1-[1-(methoxymethyl)-propyl]-4-methyl-2-oxo-7-(trifluoromethyl)-1H-quinoline-3-carboxylic acid amide] | 193 |  | 133 | 
22 | COCC(COC)n1c(=O)c(C(=O)NCc2cccc(F)c2)c(C)c2ccc(C(F)(F)F)cc21 [Example 31, N-[(3-Fluorophenyl)-methyl]-1-[2-methoxy-1-(methoxymethyl)-ethyl]-4-methyl-2-oxo-7-(trifluoromethyl)-1H-quinoline-3-carboxylic acid amide] | 80 |  |  | 46
23 | CCC(Cn1c(=O)c(C(=O)NCc2cccc(F)c2)c(C)c2ccc(C(F)(F)F)cc21)OC (centres unmarked) [Example 32, N-[(3-fluorophenyl)-methyl]-1-(2-methoxy-butyl)-4-methyl-2-oxo-7-(trifluoromethyl)-1H-quinoline-3-carboxylic acid amide] |  |  | 26 | 
24 | Cc1c(C(=O)NCc2cccc(F)c2)c(=O)n(C)c2cc(OC(F)(F)F)ccc12 [Example 33, N-[(3-fluorophenyl)-methyl]-1,4-dimethyl-2-oxo-7-(trifluoromethyloxy)-1H-quinoline-3-carboxylic acid amide] | 386 |  | 138 | 
